# From article PMC9977398, “Next-generation membrane-active glycopeptide antibiotics that also inhibit bacterial cell division” (Chemical Science, 2023)
# How the values were obtained:
# VRE = test: MIC against VRE (strains taken together); format: cell-based; conditions: ratio of MICs
# Protocol: The increase in the carbon content of substituted moieties from six (1) to seven (2 and 3) to ten (5) to twelve (4), increased activity.
# VanQAmC14 (10): Yield 65%; HPLC purity 96%; 1H-NMR (400 MHz, DMSO-d6) δ/ppm:
# Test compound was assayed in a micro -dilution broth format as per the CLSI guideline. The bacterial freeze dried stock samples were stored at -80 °C. About 5 μL of these stocks were added to 3 mL of the respective broth and the culture was grown for 6 h at 37°C with prior to the experiments. This 6 h grown culture was diluted to give effective cell concentration of 10 5 CFU/mL which was then used for determining MIC. Compounds were serially diluted 2 -fold, in sterile millipore water and 50 μL of these serial dilutions were added to the wells of 96 well plate followed by the addition of about 150 μL of bacterial solution. The plates were then incubated for 18-24 h at 37 °C. The O.D. value at 600 nm was recorded using TECAN (Infinite series, M200 pro) Plate Reade r. Each concentration had triplicate values and the whole experiment was done at least twice and the MIC value was determined by taking the average of triplicate O. D. values for each concentration and plotting it against concentration. The data was then subjected to sigmoidal fitting. From the curve the MIC value was determined, as the point where the O. D. was similar to that of control having no bacteria.
# MRSA [1] = test: Resistance study, serial passaging at sub-MIC; format: cell-based, S. aureus; conditions: after 20 passages at sub-MIC
# Protocol: Having observed the multiple mechanisms of VanQAmC10, the potential as a preclinical candidate was examined. […] The frequency of resistance for both vancomycin and VanQAmC10 against MRSA was <10^−8 indicating the absence of spontaneous mutants. […]
# from 10 μg/mL. The bacteria with compounds and untreated control were incubated for 18 h at 37 ̊C under shaking and OD600 was measured.
# Microscopy of ΔamiAC MG1655 E. coli
# ΔamiAC MG1655 was cultured overnight in LB media at 37 ̊C. Cells were then inoculated in LB media at 1:100 dilution ratio and made to grow till O.D600 0.1. The cells were then treated with 4 μg/mL concentration of vancomycin and VanQAmC10 or left untreated for 2 h. […]
# MRSA ATCC 33591 was grown to mid-log phase at 37 °C. […] The viable bacteria were then counted after 48 h incubation at 37 °C. […]
# Antagonization of antibacterial activity of AAV-qC10 was determined by addition of 500 μM N,N՛-diacetyl–L-Lys–D-Ala–D-Ala or 100 μg/mL of lipoteichoic acid to serial dilutions of the test compound. The MIC was then determined against MRSA by measuring the OD600 18-24 […]
# Vancomycin was chosen as control antibiotic for MRSA. The initial MIC values of VanQAmC10, vancomycin were determined against the respective bacteria. […]
# The doses for administration, were given modified OECD guidelines. LD50 was determined using Spearman-Karber method. […]
# MRSA [2] = test: Frequency of resistance; format: cell-based, S. aureus
# Source text: Having observed the multiple mechanisms of VanQAmC10, the potential as a preclinical candidate was examined. […] The frequency of resistance for both vancomycin and VanQAmC10 against MRSA was <10^−8 indicating the absence of spontaneous mutants.
# MRSA [3] = test: Antagonization assay with Ac2KAA or lipoteichoic acid; format: cell-based, S. aureus; conditions: for change in MIC in presence of lipoteichoic acid: 100 μg/mL lipoteichoic acid as competing ligand
# Protocol: Ac2KAA can act as a competitive ligand to the target of glycopeptide antibiotics and therefore antagonize antibacterial activity. In the presence of 500 μM of Ac2KAA, the activity of VanQAmC10 (8) was reduced by 2-fold. However, the MIC of vancomycin increased from 0.6 μM to >30 μM ([…] increase in MIC) in presence of the same amount of Ac2KAA. The 2-fold reduction in the activity of VanQAmC10 (8) accounts for the loss of activity due to D-Ala–D-Ala binding. This implied that it acted through additional mechanisms that are independent of Ala-D-Ala binding. The presence of the positive charge in VanQAmC10 (8) could result in interactions with the negatively charged components of the bacterial cell wall like teichoic acid. C-terminal trimethyl ammonium modified vancomycin derivative has been reported to bind to teichoic acid.[32] […]
# Antagonization of antibacterial activity of AAV-qC10 was determined by addition of 500 μM
# N,N՛-diacetyl–L-Lys–D-Ala–D-Ala or 100 μg/mL of lipoteichoic acid to serial dilutions of the […]
Structure (SMILES),fold enhancement in activity as compared to vancomycin against VRE (VRE),increase in MIC (resistance development) (MRSA [1]),frequency of resistance (MRSA [2]),change in MIC in presence of lipoteichoic acid (MRSA [3]),"fold reduction of activity in presence of Ac2KAA (MRSA [3]; 500 μM Ac2KAA, MRSA)","fold increase in MIC in presence of Ac2KAA (MRSA [3]; 500 μM Ac2KAA, MRSA)","MIC (MRSA [3]; Staphylococcus aureus, 500 μM Ac2KAA, MRSA, read-out: MIC in presence of Ac2KAA)"
CNC(CC(C)C)C(=O)NC1C(=O)NC(CC(N)=O)C(=O)NC2C(=O)NC3C(=O)NC(C(=O)NC(C(=O)NCCC[N+](C)(C)Cc4ccc(-c5ccccc5)cc4)c4cc(O)cc(O)c4-c4cc3ccc4O)C(O)c3ccc(c(Cl)c3)Oc3cc2cc(c3OC2OC(CO)C(O)C(O)C2OC2CC(C)(N)C(O)C(C)O2)Oc2ccc(cc2Cl)C1O (centres unmarked) [VanQbiph (4)],40- to 60 fold,,,,,,
CCCCCCCCCCNC(=O)C[N+](C)(C)CCCNC(=O)C1NC(=O)C2NC(=O)C(NC(=O)C3NC(=O)C(CC(N)=O)NC(=O)C(NC(=O)C(CC(C)C)NC)C(O)c4ccc(c(Cl)c4)Oc4cc3cc(c4OC3OC(CO)C(O)C(O)C3OC3CC(C)(N)C(O)C(C)O3)Oc3ccc(cc3Cl)C2O)c2ccc(O)c(c2)-c2c(O)cc(O)cc21 (centres unmarked) [VanQAmC10 (8)],~160 fold,lack of resistance development,< 10^−8,no change in the MIC,2 fold,,
"CN[C@H](CC(C)C)C(=O)N[C@H]1C(=O)N[C@@H](CC(N)=O)C(=O)N[C@H]2C(=O)N[C@H]3C(=O)N[C@H](C(=O)N[C@H](C(=O)O)c4cc(O)cc(O)c4-c4cc3ccc4O)[C@H](O)c3ccc(c(Cl)c3)Oc3cc2cc(c3O[C@@H]2O[C@H](CO)[C@@H](O)[C@H](O)[C@H]2O[C@H]2C[C@](C)(N)[C@H](O)[C@H](C)O2)Oc2ccc(cc2Cl)[C@H]1O [Vancomycin, reference compound]",,2 fold,< 10^−8,no change in the MIC,,> 40 fold,> 30 µM
